Results as given in patent US20100261700A1, “BETA-LACTAMASE INHIBITORS” (priority 2009, published 2010).

Tests used:
[1] = target: T1, beta-lactamase from Enterobacter cloacae (Enterobacter cloacae, UniProt P05364); assay: Assay (I) for beta-lactamase activity, Cefesone hydrolysis (product inhibition); format: biochemical; conditions: reaction continued for two hours; theoretical maximal absorbance approximately 1.6; said to be consistent with product inhibition
T1 construct: purchased Sigma-Aldrich
Procedure: A chromogenic cephalosporin, Cefesone, is synthesized and isolated, for example, as described by Sutton et al. International Application WO 2009/049086 and used to monitor p-lactamase activity. A typical assay monitors the hydrolysis of Cefesone via the formation of a species which absorbs at 486 nm (molar absorptivity constant 16,000). Absorption is monitored as a function of time in 0.1 M, pH 7.0 sodium phosphate, 0.2 mM Cefesone and 4 volume percent DMSO cosolvent at 30° C. using a Beckman DU-40 spectrophotometer having a circulating water bath attached to the cuvette holder. The assay is initiated by addition and mixing of an appropriate amount of beta-lactamase.
The beta-lactamase assay using enzyme fro Enterobacter cloacae (Sigma-Aldrich, St. Louis, Mo.) was carried out as in Example 2 (assay I) above with compound 2. After the initial rate was determined the reaction was allowed to continue for two hours. Theoretical maximal absorbance at 486 nm is approximately 1.6 while the observed final absorbance was consistently 0.26.

[2] = target: T1, beta-lactamase from Enterobacter cloacae; assay: Time dependent inhibition of beta-lactamase, with dialysis to test for return of activity; format: biochemical; conditions: 10 mL 0.1 units/mL beta-lactamase with 500 microM inhibitor, dialysed against 1 L 0.1 M sodium phosphate buffer (pH 7.0), one exchange

T1 sequence (P05364 21-381): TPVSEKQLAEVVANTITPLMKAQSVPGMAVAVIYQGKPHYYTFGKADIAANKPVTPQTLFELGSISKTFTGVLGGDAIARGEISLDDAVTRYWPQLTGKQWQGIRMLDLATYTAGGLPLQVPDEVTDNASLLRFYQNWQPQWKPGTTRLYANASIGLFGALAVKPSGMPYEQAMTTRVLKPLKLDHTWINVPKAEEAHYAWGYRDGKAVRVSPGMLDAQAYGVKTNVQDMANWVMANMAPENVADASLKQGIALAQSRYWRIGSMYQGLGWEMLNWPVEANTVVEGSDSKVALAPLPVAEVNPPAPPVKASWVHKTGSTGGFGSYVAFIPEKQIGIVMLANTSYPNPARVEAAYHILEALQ

Compound | observed final absorbance at 486 nm [1] | return of beta-lactamase activity after dialysis [2]
O=C(Cc1ccccc1)NC1C(=O)N2C(C(=O)O)=C(/C=C/C3CC3)CSC12 (stereo not drawn) [compound 2, 3-vinylcyclopropane-7-(2-phenylacetamido)-3-Cephem-4-carboxylic acid] | 0.26 | no return of activity
O=C(Cc1ccccc1)NC1C(=O)N2C(C(=O)O)=C(/C=C/c3ccc(CBr)cc3)CSC12 (stereo not drawn) [compound 4, 3-(1-bromomethyl-4-vinylbenzene)-7-(2-phenylacetamido)-3-Cephem-4-carboxylic acid] | – | no return of activity
